In US11780841B2, “3,6-methano-1H-pyrrolo[3,2-b]pyridine and 3,6-methano-1H-pyrrolo[3,2-c]pyridine compounds and medicaments using same” (priority 2018, dated 2023) one finds IC50 data, which are given here for 61 compounds.

pIC50: −log10 of the molar value.

This experiment relates to recombinant rabies virus 1088 strain expressing Gaussia Luciferase (GLuc) (1088/GLuc). In kind it is cell-based. The following applies: read-out: Anti-rabies activity.
`CC(C)CC[C@@H]1[C@H]2CN[C@@]3(C(=O)NCc4ccccc4)[C@@H](C2)CN(Cc2ccc(O)cc2)[C@@H]13` [IB-786]: the pIC50 is 4.52 to 5.00. The same measure for `CC(C)C[C@@H]1[C@H]2CN[C@@]3(C(=O)NCc4ccccc4)[C@@H](C2)CN(Cc2ccc(O)cc2)[C@@H]13` [IB-787]: 4.52 to 5.00; for `O=C(NCc1cccc2ccccc12)[C@]12NC[C@H]3C[C@H]1CN(Cc1cccc4ccccc14)[C@H]2[C@@H]3CCc1ccccc1` [IB-804]: above 5.30; for `NC(=O)CCNC(=O)[C@]12NC[C@H]3C[C@H]1CN(Cc1ccccc1)[C@H]2[C@@H]3Cc1cccc2ccccc12` [IB-813]: above 5.30.

For `O=C(NCc1ccc(F)cc1)[C@]12NC[C@H]3C[C@H]1CN(CCO)[C@H]2[C@@H]3Cc1cccc2ccccc12` [IB-831], the pIC50 is above 5.30. The same measure for `CC(C)C[C@@H]1[C@H]2CN[C@@]3(C(=O)NCc4ccccc4)[C@@H](C2)CN(Cc2ccc(Cl)cc2)[C@@H]13` [IB-864]: 5.00 to 5.30; for `CC(C)C[C@@H]1[C@H]2CN[C@@]3(C(=O)NCc4ccccc4)[C@@H](C2)CN(Cc2cccc(Cl)c2)[C@@H]13` [IB-865]: 5.00 to 5.30; for `COc1ccc(CN2C[C@@H]3C[C@@H]4CN[C@]3(C(=O)NCc3ccccc3)[C@@H]2[C@@H]4CC(C)C)cc1` [IB-866]: 5.00 to 5.30.

Take `Cc1ccc(CN2C[C@@H]3C[C@@H]4CN[C@]3(C(=O)NCc3ccccc3)[C@@H]2[C@@H]4CC(C)C)cc1` [IB-867]: the pIC50 was 5.00 to 5.30. On to `CC(C)C[C@@H]1[C@H]2CN[C@@]3(C(=O)NCc4ccc(Cl)cc4)[C@@H](C2)CN(CC(C)C)[C@@H]13` [IB-871], for which the pIC50 was 4.52 to 5.00. Regarding `CC(C)C[C@@H]1[C@H]2CN[C@@]3(C(=O)NCc4ccccc4)[C@@H](C2)CN(Cc2ccc(N(C)C)cc2)[C@@H]13` [IB-873], the pIC50 was 5.00 to 5.30. Under `CC(C)C[C@@H]1[C@H]2CN[C@@]3(C(=O)NCc4ccccc4)[C@@H](C2)CN(Cc2ccc(C(C)(C)C)cc2)[C@@H]13` [IB-874] stands 5.00 to 5.30; under `CC(C)CC[C@@H]1[C@H]2CN[C@@]3(C(=O)NCc4ccccc4)[C@@H](C2)CN(CC(C)C)[C@@H]13` [IB-875], 4.52 to 5.00; under `CC(C)CCN1C[C@@H]2C[C@@H]3CN[C@]2(C(=O)NCc2ccccc2)[C@@H]1[C@@H]3CC(C)C` [IB-876], 4.52 to 5.00.

As to `CCOc1ccc(CN2C[C@@H]3C[C@@H]4CN[C@]3(C(=O)NCc3ccccc3)[C@@H]2[C@@H]4CC(C)C)cc1` [IB-878], the pIC50 is 4.52 to 5.00. Under `CC(C)C[C@@H]1[C@H]2CN[C@@]3(C(=O)NCc4ccc5ccccc5c4)[C@@H](C2)CN(Cc2ccccc2)[C@@H]13` [IB-879] stands above 5.30; under `NC(=O)CN1C[C@H]2C[C@]3(C(=O)NCc4ccc(F)cc4)NC[C@H]2[C@H]1[C@H]3Cc1cccc2ccccc12` [IF-97], 4.52 to 5.00. For `CCCCCCNC(=O)[C@@]12C[C@@H]3CN(CC(N)=O)[C@@H]([C@@H]3CN1)[C@H]2CCc1ccccc1` [IF-109], the pIC50 is 4.52 to 5.00.

As to `CCCCCCNC(=O)[C@@]12C[C@@H]3CN(CC(N)=O)[C@@H]([C@@H]3CN1)[C@H]2Cc1cccc2ccccc12` [IF-110], the pIC50 is above 5.30. Turning to `NC(=O)CN1C[C@H]2C[C@]3(C(=O)NCc4ccc(O)cc4)NC[C@H]2[C@H]1[C@H]3Cc1cccc2ccccc12` [IF-137], the pIC50 is above 5.30. With `CC(C)CCN1C[C@H]2C[C@]3(C(=O)NC(C)C)NC[C@H]2[C@H]1[C@H]3CCCNC(=N)N` [IF-214], the pIC50 was 4.52 to 5.00.

On to `NC(=O)CCNC(=O)[C@@]12C[C@@H]3CN(CCc4ccccc4)[C@@H]([C@@H]3CN1)[C@H]2CC(N)=O` [IF-219], for which the pIC50 is 4.52 to 5.00. Under `NC(=O)C[C@@H]1[C@@H]2[C@@H]3CN[C@@]1(C(=O)NCc1cccc4ccccc14)C[C@@H]3CN2CCc1ccccc1` [IF-223] stands 4.52 to 5.00. The same measure for `CC(C)CNC(=O)[C@@]12C[C@@H]3CN(Cc4cccc5ccccc45)[C@@H]([C@@H]3CN1)[C@H]2CC(N)=O` [IF-226]: 4.52 to 5.00; for `NC(=O)C[C@@H]1[C@@H]2[C@@H]3CN[C@@]1(C(=O)NCCO)C[C@@H]3CN2Cc1cccc2ccccc12` [IF-230]: 4.52 to 5.00. Under `CC(C)CNC(=O)[C@@]12C[C@@H]3CN(Cc4cccc5ccccc45)[C@@H]([C@@H]3CN1)[C@H]2CCCNC(=N)N` [IF-235] stands 4.52 to 5.00; under `N=C(N)NCCC[C@@H]1[C@@H]2[C@@H]3CN[C@@]1(C(=O)NCc1ccccc1)C[C@@H]3CN2Cc1cccc2ccccc12` [IF-236], 4.52 to 5.00. Consider `N=C(N)NCCC[C@@H]1[C@@H]2[C@@H]3CN[C@@]1(C(=O)NCCO)C[C@@H]3CN2Cc1cccc2ccccc12` [IF-239], for which the pIC50 was 4.52 to 5.00. Under `CCCCCCNC(=O)[C@@]12C[C@@H]3CN(Cc4cccc5ccccc45)[C@@H]([C@@H]3CN1)[C@H]2CCCNC(=N)N` [IF-243] stands above 5.30; under `CC(C)NC(=O)[C@@]12C[C@@H]3CN(Cc4cccc5ccccc45)[C@@H]([C@@H]3CN1)[C@H]2CCCNC(=N)N` [IF-244], above 5.30. The same measure for `N=C(N)NCCC[C@@H]1[C@@H]2[C@@H]3CN[C@@]1(C(=O)NCc1ccc(F)cc1)C[C@@H]3CN2Cc1cccc2ccccc12` [IF-245]: above 5.30; for `NC(=O)C[C@@H]1[C@@H]2[C@@H]3CN[C@@]1(C(=O)NCc1ccccc1)C[C@@H]3CN2CC1CCCCC1` [IF-246]: 4.52 to 5.00; for `NC(=O)C[C@@H]1[C@@H]2[C@@H]3CN[C@@]1(C(=O)NCc1ccc(O)cc1)C[C@@H]3CN2CC1CCCCC1` [IF-247]: 4.52 to 5.00. Under `NC(=O)C[C@@H]1[C@@H]2[C@@H]3CN[C@@]1(C(=O)NCCc1ccccc1)C[C@@H]3CN2CC1CCCCC1` [IF-251] stands 4.52 to 5.00.

As to `CCCCCCNC(=O)[C@@]12C[C@@H]3CN(CC4CCCCC4)[C@@H]([C@@H]3CN1)[C@H]2CCCNC(=N)N` [IF-260], the pIC50 was 4.52 to 5.00. Under `CC(C)CNC(=O)[C@@]12C[C@@H]3CN(Cc4ccc(F)cc4)[C@@H]([C@@H]3CN1)[C@H]2CC(N)=O` [IF-262] stands above 5.30. Under `NC(=O)C[C@@H]1[C@@H]2[C@@H]3CN[C@@]1(C(=O)NCCc1ccccc1)C[C@@H]3CN2Cc1ccc(F)cc1` [IF-269] stands 4.52 to 5.00. The same measure for `CC(C)NC(=O)[C@@]12C[C@@H]3CN(Cc4ccc(F)cc4)[C@@H]([C@@H]3CN1)[C@H]2CCCNC(=N)N` [IF-274]: 4.52 to 5.00; for `N=C(N)NCCC[C@@H]1[C@@H]2[C@@H]3CN[C@@]1(C(=O)NCc1cccc4ccccc14)C[C@@H]3CN2Cc1ccccc1` [IF-284]: 4.52 to 5.00.

As to `CCCCCCNC(=O)[C@@]12C[C@@H]3CN(Cc4ccccc4)[C@@H]([C@@H]3CN1)[C@H]2CCCNC(=N)N` [IF-285], the pIC50 was 4.52 to 5.00. As for `N=C(N)NCCC[C@@H]1[C@@H]2[C@@H]3CN[C@@]1(C(=O)NCc1cccc4ccccc14)C[C@@H]3CN2Cc1ccc(F)cc1` [IF-297], the pIC50 was 4.52 to 5.00.

With `CCCCCCNC(=O)[C@@]12C[C@@H]3CN(Cc4ccc(F)cc4)[C@@H]([C@@H]3CN1)[C@H]2CCCNC(=N)N` [IF-298], the pIC50 is 4.52 to 5.00.

For the compound `CC(C)CC[C@@H]1[C@@H]2[C@@H]3CN[C@@]1(C(=O)NCCC(N)=O)C[C@@H]3CN2CC(C)C` [IF-300], the pIC50 is 4.52 to 5.00. The same measure for `CC(C)CCNC(=O)[C@@]12C[C@@H]3CN(CCCNC(=N)N)[C@@H]([C@@H]3CN1)[C@H]2Cc1cccc2ccccc12` [IF-356]: 4.52 to 5.00; for `CC(C)CC[C@@H]1[C@@H]2[C@@H]3CN[C@@]1(C(=O)NCCC(N)=O)C[C@@H]3CN2Cc1cccc2ccccc12` [IF-384]: 4.52 to 5.00; for `N=C(N)NCCCNC(=O)[C@@]12C[C@@H]3CN(Cc4cccc5ccccc45)[C@@H]([C@@H]3CN1)[C@H]2Cc1ccccc1` [IF-386]: 4.52 to 5.00. The same measure for `N=C(N)NCCCNC(=O)[C@@]12C[C@@H]3CN(Cc4cccc5ccccc45)[C@@H]([C@@H]3CN1)[C@H]2CCc1ccccc1` [IF-389]: above 5.30; for `N=C(N)NCCCNC(=O)[C@@]12C[C@@H]3CN(Cc4cccc5ccccc45)[C@@H]([C@@H]3CN1)[C@H]2Cc1cccc2ccccc12` [IF-390]: 4.52 to 5.00.

Consider `CC(C)CC[C@@H]1[C@@H]2[C@@H]3CN[C@@]1(C(=O)NCC(C)C)C[C@@H]3CN2Cc1ccccc1` [IF-411], for which the pIC50 was above 5.30. Take `CC(C)CC[C@@H]1[C@@H]2[C@@H]3CN[C@@]1(C(=O)NCC(C)C)C[C@@H]3CN2CC(C)C` [IF-412]: the pIC50 was above 5.30. With `CC(C)CCN1C[C@H]2C[C@]3(C(=O)NCCC(=O)O)NC[C@H]2[C@H]1[C@H]3Cc1cccc2ccccc12` [IF-413], the pIC50 was 4.52 to 5.00.

As for `O=C(O)CCNC(=O)[C@@]12C[C@@H]3CN(CC4CCCCC4)[C@@H]([C@@H]3CN1)[C@H]2Cc1cccc2ccccc12` [IF-416], the pIC50 is 4.52 to 5.00. Under `O=C(O)CCNC(=O)[C@@]12C[C@@H]3CN(Cc4ccc(F)cc4)[C@@H]([C@@H]3CN1)[C@H]2Cc1cccc2ccccc12` [IF-417] stands 4.52 to 5.00; under `O=C(O)CC[C@@H]1[C@@H]2[C@@H]3CN[C@@]1(C(=O)NCc1cccc4ccccc14)C[C@@H]3CN2CC1CCCCC1` [IF-419], 4.52 to 5.00. On to `CC(C)CC[C@@H]1[C@@H]2[C@@H]3CN[C@@]1(C(=O)NCc1cccc4ccccc14)C[C@@H]3CN2CCC(=O)O` [IF-422], for which the pIC50 is 4.52 to 5.00. For `CC(C)CN1C[C@H]2C[C@]3(C(=O)NCCC(=O)O)NC[C@H]2[C@H]1[C@H]3Cc1cccc2ccccc12` [IF-428], the pIC50 is 4.52 to 5.00.

In the case of `NC(=O)CCNC(=O)[C@@]12C[C@@H]3CN(Cc4cccc5ccccc45)[C@@H]([C@@H]3CN1)[C@H]2Cc1ccc(O)cc1` [IF-435], the pIC50 is above 5.30. Under `O=C(NCCc1ccccc1)[C@@]12C[C@@H]3CN(CC4CCCCC4)[C@@H]([C@@H]3CN1)[C@H]2Cc1ccc(O)cc1` [IF-439] stands above 5.30; under `O=C(O)CCNC(=O)[C@@]12C[C@@H]3CN(CCO)[C@@H]([C@@H]3CN1)[C@H]2Cc1cccc2ccccc12` [IF-444], 4.52 to 5.00. The same measure for `CC(C)CCN1C[C@H]2C[C@]3(C(=O)NCc4ccc(O)cc4)NC[C@H]2[C@H]1[C@H]3CCC(=O)O` [IF-445]: 4.52 to 5.00; for `O=C(O)CC[C@@H]1[C@@H]2[C@@H]3CN[C@@]1(C(=O)NCc1ccc(O)cc1)C[C@@H]3CN2CC1CCCCC1` [IF-447]: 4.52 to 5.00.
